According to US20090181098A1, “Hmg-Co-a Reductase Inhibitor Enhancement of Bone and Cartilage” (OsteoScreen IP, LLC, priority 2006, published 2009):
Like-named read-outs stand apart in the source and are kept apart here.

What was measured:
[1] = Plasma lovastatin levels after a single oral or dermal dose, estimated by HMG-CoA reductase inhibition assay; format: in vivo, rat
Method: The area under the plasma concentration-time curve (AUC0-24 hr) of lovastatin equivalence was calculated using the trapezoidal rule for both oral and dermal application of lovastatin. For oral administration, a suspension of lovastatin was prepared in 0.5% methylcellulose and administered by gavage. For dermal administration, lovastatin was mixed initially with 100% DMSO and in subsequent experiments, with hydrophilic petrolatum and applied to the back of the animals after shaving (area of application=6.45 cm^2). In later experiments, the dermal formulation was modified and a aqueous alkanolic gel with a carbomer-based formulation containing water, ethanol, Carbomer 940, cholesterol, BHA and TEA was used.

osteocalcin = test: Serum osteocalcin (sandwich ELISA) in OVX rats; format: in vivo, rat; details: dermal gel 0.01 mg/kg/day for 5 days, day 26
Method: (§1) Blood samples were obtained at the end of the five day treatment for determination of liver and muscle enzymes (alanine aminotransferase (ALT), aspartate aminotransferase (AST), alkaline phosphatase (AP), and lactic dehydrogenase (LDH) by radioimmunoassays (Esoterix, San Antonio, Tex.). Kinetic quantitative determination of […] (CPK) in serum was estimated using a kit from Stanbio Laboratory (Boerne, Tex.). The concentration of osteocalcin was measured using a sandwich ELISA assay supplied by from Biomedical Technologies Inc.

intact rats = test: Effects of transdermal lovastatin on bone in intact rats (BMD, histomorphometry, μCT); format: in vivo, rat; details: for Increase in bone volume, proximal tibial metaphysis: dermal, hydrophilic petrolatum, 4 weeks after treatment
Method: (§2) Following sacrifice, both femurs and tibiae were removed, cleaned of soft tissue, fixed in 10% formalin for 48 hours, and then stored in 70% ETOH and prepared for histology. Histomorphometric analysis was performed using a semiautomated Osteomeasure System (Osteometrics, Inc., Atlanta, Ga.) and digitizing pad and by following standard histomorphometric techniques. Bone volume, trabecular number, thickness and separation, cell number and dynamic parameters were determined as described previously by Parfitt et al. [Parfitt A M (1988) Bone histomorphometry: standardization of nomenclature, symbols and units. Summary of proposed system. J Bone Miner Res 4:1-5.]. Bone formation rates (BFR) and mineral apposition rates (MAR) were measured in plastic-embedded sections following demeclocycline and calcein injections (15 and 20 mg/kg/body weight respectively) given intraperitoneally at 10 and 4 days before sacrifice. Values for MAR were corrected for obliquity of the plane of section in cancellous bone. Rats were evaluated with a mouse densitometer, Piximus (GE Medical Systems); bone mineral density (BMD), calculated by dividing bone mineral content (g) by the projected bone area (cm^2), was assessed for the proximal third of the tibia at time 0 and at 5 weeks. Micro-computed tomography (μ-CT) analysis of the rat distal femur was kindly performed by Phil Salmon (Skyscan, Belgium). Bones were scanned using the Skyscan Model 1072 employing an x-ray tube voltage of 100 kV, and magnified to attain a pixel size of 10.13 μm. Data are expressed as the mean standard error (SEM). Statistical differences between groups were evaluated with one-way analysis of variance (ANOVA). […] P<0.05 were considered significant.

femur fracture model = test: Femur fracture model, systemically delivered lovastatin (radiographs, biomechanics); format: in vivo, rat
[2] = system: ovariectomized (OVX) rats; test: Effects of transdermal lovastatin on bone in ovariectomized rats (histomorphometry); format: in vivo, rat
Method: as §2

neonatal murine calvaria = test: Neonatal murine calvarial explant culture, bone and cartilage formation; format: cell-based, mouse
Method: Four day old calvarial explant cultures were incubated with media containing scaffold material that releases 0, 0.4 or 8 μg/day. The extent of new cartilage is then quantitated by imaging analysis.
Experimental Design Four day old Swiss white pups were employed as they are generally a healthy mouse strain. Calvaria from 4-day old Swiss white mouse pup mice were dissected out and cut in half. The excised hemi-calvariae were placed on metal grids (at the surface) in 1 ml BGJ media with Fitton-Jackson modification BGJ media (Sigma) containing 0.1% BSA with glutamine. The bones are incubated at 37° C. in a 5% humidified incubator for a period of 24 h and then transferred to wells containing 1 ml media with test compounds and further incubated under the above conditions for 72-96 h. The bones are then removed, fixed in 10% buffered formalin for 24 h, decalcified in 14% EDTA overnight, embedded in paraffin and 4 μm-thick sections cut and stained with H&E.
Dosing. […] Calvaria are removed at day 7 and day 14. The media is changed every 3 days. Cartilage formation is assessed histologically.

[3] = Plasma lovastatin by mass spectroscopy, fracture Experiment 2; format: in vivo; details: rat, 3 hrs after the last dose, read-out: Plasma lovastatin level
Method: Plasma was taken from the rats 3 hrs after the last dose and the lovastatin was measured by mass spectroscopy. […] Effective plasma levels from transdermal administration is on the order of 2-3 ng/ml.

[4] = Plasma lovastatin by mass spectroscopy after local nanobeads; format: in vivo, rat; details: any of the dosed groups, end of the experiment
Method: Plasma was taken from the rats 3 hrs after the last dose and the lovastatin was measured by mass spectroscopy.

[5] = Serum liver and muscle enzymes (ALT, AST, AP, LDH, CPK) and myotoxicity after dermal lovastatin; details: for ALT / AP / AST / CPK / LDH: end of 5 day treatment
Method: as §1
Three-month old virgin female Sprague Dawley rats were purchased from Harlan Laboratories, LTD (Indianapolis, Ind.). Experiments were performed using either intact, bilaterally ovariectomized (OVX) or sham-operated (SHAM) rats with treatment starting 5 days after surgery in the latter groups. Rats were weight-matched and divided into treatment groups (n=10). Compounds were administered by daily transdermal application for 5 days only or 5 days/week for 5 weeks when specified. Animals were pair-fed throughout the experimental period and weekly body weights determined and dosage adjusted accordingly. At the completion of the experiment, animals were anesthetized with a ketamine (10 mg/ml) at a dose of 100 mg/kg body weight and euthanized by cervical dislocation.

[6] = poly(DL-lactide) nanoparticles
Method: The test material is lovastatin in nanoparticles prepared as described above. […] The test articles are nanoparticles with and without lovastatin. […] The lovastatin levels are determined by HPLC and the release curved is followed throughout the experiment.

[7] = transdermal 1 and 5 mg/kg/day for 5 days
[8] = aqueous alkanolic gel, lowest dose tested
[9] = dermal, hydrophilic petrolatum, 1 mg/kg/day
[10] = dermal, hydrophilic petrolatum, 5 mg/kg/day

SMILES: CC[C@H](C)C(=O)O[C@H]1C[C@@H](C)C=C2C=C[C@H](C)[C@H](CC[C@@H]3C[C@@H](O)CC(=O)O3)[C@H]21 [lovastatin]
- Plasma levels, aqueous alkanolic gel compared with hydrophilic petrolatum ([1]; single dermal dose): higher plasma levels
- Time to peak plasma levels ([1]; single dermal dose in aqueous alkanolic gel): within the first hour
- AUC0-24 h, aqueous alkanolic gel relative to petrolatum formulation ([1]; single dermal dose, both doses tested (6.25 and 25 mg/kg)): more than double
- Plasma concentrations, dermal compared with oral ([1]; single dose 10 or 50 mg/kg, dermal in 100% DMSO vs gavage in 0.5% methylcellulose, 1, 3, 6, 24 h): greater, less variable and more prolonged
- Serum osteocalcin levels (osteocalcin): significant increase in osteocalcin levels
- Bone formation rates greater than those of control rats (intact rats; after 30 days, transdermal 5 days): more than 150%
- Increase in bone formation rates (intact rats; dermal 5 mg/kg/day): 166%
- Increase in bone volume, proximal tibial metaphysis (intact rats; 1 mg/kg/day for 5 days only): 17%
- Increase in bone volume, proximal tibial metaphysis (intact rats; 5 mg/kg/day for 5 days only): 33%
- Cancellous bone volume in distal femoral metaphyses by μCT vs controls (intact rats; [7]): higher cancellous bone volume
- Trabecular thickness, number and spacing by μCT (intact rats; [7]): increase in trabecular thickness and number, and reduced trabecular spacing
- Increase in BMD over vehicle-treated controls (intact rats; weekly dermal administration, proximal tibiae, Piximus, end of five weeks): 8%
- Maximum force to break the bones, 2.5 mg/kg vs 1 mg/kg/day (femur fracture model; Experiment 1, 5 day transdermal dose of 2.5 mg/kg, 6 weeks): lower maximum force than the 1 mg/kg/day dose
- Radiological evaluation of fracture repair (femur fracture model; Experiment 1, oral 10 and 25 mg/kg, six weeks): no difference between the treated and the controls
- Radiographic score at 2 weeks (femur fracture model; Experiment 1, oral 10 and 25 mg/kg/day): no difference from vehicle-treated controls
- Force required to break the bone (femur fracture model; Experiment 1, oral 10 and 25 mg/kg/day, 6 weeks): no effect
- Radiographic score at 2 weeks (femur fracture model; Experiment 1, transdermal 1 and 2.5 mg/kg/day): striking effect at both doses
- Force required to break the bone, greater than vehicle treated controls (femur fracture model; Experiment 1, transdermal, 6 weeks): 42%
- Radiological evaluation of fracture repair (femur fracture model; Experiment 1, transdermal, week 6): complete healing by week 6
- Force required to break the bone, greater than vehicle-treated controls (femur fracture model; Experiment 2, TD 0.1 mg/kg/day, 6 weeks): 42%
- Maximum force to rebreak the bones (femur fracture model; Experiment 2, TD doses higher than 0.1 mg/kg/day): reduced maximum force
- Force required to break the bone (femur fracture model; Experiment 2, oral 5 mg/kg/day, 6 weeks): no effect
- Stiffness (femur fracture model; Experiment 2, oral 5 mg/kg/day, 6 weeks after fracture): no effect
- Most effective transdermal dose (femur fracture model; for 5 days): 0.1 mg/kg/day
- Stiffness (femur fracture model; previous experiment (Experiment 1), oral, higher doses): increase in stiffness
- Fracture healing (radiographic examination and biomechanical loading) (femur fracture model; transdermal): accelerates fracture healing
- Strength and stiffness of fractured bones (femur fracture model; transdermal, even at 0.1 mg/kg/day for 5 days only): increase in both strength and stiffness
- Effective transdermal dose as fraction of the dose required orally for an effect on bone formation ([2]; 0.01 mg/kg transdermal vs oral dose of Mundy et al. 1999): approximately 1/1000
- Bone formation rates ([2]; 5 days of transdermal exposure, 0.01 mg/kg body weight): markedly increased
- Trabecular number [2, 8]: significant increase in trabecular number
- Trabecular separation [2, 8]: significant decrease in trabecular separation
- Increase in bone volume vs OVX rats treated with vehicle ([2]; dermal 1 mg/kg/day, 5 days (FIG. 4)): 50%
- Bone formation rates (BFR) ([2]; dermal, 5 day administration (FIG. 6)): significant increase
- OVX-induced changes in trabecular thickness, number and separation ([2]; dermal, 5 days (FIG. 5)): partly prevented these changes
- Bone volume by histomorphometry ([2]; dermal, aqueous alkanolic gel, 0.01 to 0.5 mg/kg/day for 5 days, significant at 0.01 mg/kg/day): increased bone volume at all the doses tested
- Increase in bone volume vs vehicle-treated OVX rats ([2]; dermal, hydroalcoholic gel, 0.01 to 0.5 mg/kg/day for 5 days, proximal tibiae, four weeks after dosing): > 40%
- Increase in bone volume vs vehicle-treated OVX rats ([2]; dermal, hydrophilic petrolatum, 5 days, even at the lowest dose (FIG. 3b)): > 50%
- Cancellous bone connectivity (trabecular thickness, number, separation, star volume, fractal dimension, pattern factor) ([2]; transdermal): increased cancellous bone connectivity
- Bone formation in cultures of neonatal murine calvaria (neonatal murine calvaria; 7 days after exposure): stimulates bone formation
- Cartilage formation in cultures of neonatal murine calvaria (neonatal murine calvaria; 14 days after exposure, scaffold release 0.4 and 0.8 μg/24 h): stimulate cartilage formation in a dose response fashion
- concentration at 3 h ([3]; oral 5 mg/kg/day): 10 ng/mL
- concentration at 3 h ([3]; topical, transdermal 0.1 and 1 mg/kg/day): 2 to 3 ng/mL
- Plasma lovastatin [4]: undetectable
- Change in liver and muscle skeletal tissue enzymes (AST, ALT, AP, LDH, CPK) ([5]; dermal, aqueous alkanolic gel, 0.01 to 0.5 mg/kg/day, end of treatment, sham/ovx rats): No significant changes
- ALT [5, 9]: 55 ± 3 μ/L
- AP [5, 9]: 123 ± 6 μ/L
- AST [5, 9]: 110 ± 4 μ/L
- CPK [5, 9]: 441 ± 61 μ/L
- LDH [5, 9]: 349 ± 47 μ/L
- ALT [5, 10]: 57 ± 2 μ/L
- AP [5, 10]: 115 ± 5 μ/L
- AST [5, 10]: 128 ± 7 μ/L
- CPK [5, 10]: 578 ± 45 μ/L
- LDH [5, 10]: 528 ± 67 μ/L
- Change in liver and muscle enzymes (ALT, AST, AP, LDH, CPK) vs vehicle ([5]; dermal, hydrophilic petrolatum, 1 and 5 mg/kg/day, 5 days): No changes
- Serum creatine protein kinase (CPK), treated groups vs control ([5]; hydroalcoholic gel, 5 days, sham and ovx rats): No significant changes
- Non-myotoxic dose (50 mg/kg/day) relative to effective dose (0.01 mg/kg) ([5]; transdermal): 5000 fold
- Myotoxicity by CPK measurements and morphologic examination of skeletal muscles ([5]; transdermal, doses up to 50 mg/kg/day): not observed
- Release rate of lovastatin from nanoparticles [6]: about 2 %/day
